Patent US20240228493A1, “LRRK2 INHIBITORS AND USES THEREOF” (NEURON23, ICN., priority 2022, published 2024)

Key:
human hepatocyte = experiment: Human hepatocyte stability, predicted hepatic clearance (h-Hept CL predict); format: in vitro ADME; details: human hepatocytes, 0.5×10^6 cells/mL, 1 μM, values without asterisk
Method: The compounds disclosed herein were tested in vitro on human hepatocyte for in vitro h-Hept CL predict according to the following procedures. • 1. Compound sock solutions were prepared by dissolving test compound and positive control in dimethyl sulfoxide (DMSO) at a concentration of 10 mM. Stock solutions were then diluted to 100 μM solutions by combining 198 μL of 50% acetonitrile/50% water with 2 μL of the 10 mM stock in separate conical tubes. • 2. Cryopreserved hepatocytes were prepared as follows: Incubation medium (William's E Medium supplemented with GlutaMAX) and hepatocyte thawing medium were placed in a 37° C. water bath and allowed to warm for at least 15 minutes prior to use. Cryopreserved hepatocytes were removed from storage, ensuring that vials remained at cryogenic temperatures until thawed. Cells were thawed by placing the vials in a 37° C. water bath and gently shaking the vials for 2 minutes. After thawing was completed, vials were sprayed with 70% ethanol and transferred to a biosafety cabinet. Hepatocytes were transferred into 50 mL conical tube containing thawing medium using wide-bore pipette tips. Tubes were placed into a centrifuge and spun at 100 g for 10 minutes. Then thawing medium was aspirated and hepatocytes were resuspended in enough incubation medium to yield ˜1.5×10^6 cells/mL. Cells were counted using acridine orange and propidium iodide (AO/PI) staining, and the viable cell density was determined. Cells were diluted with incubation medium to a working cell density of 0.5×10^6 viable cells/mL. • 3. To determine hepatocyte stability, 198 μL of hepatocytes were transferred into each well of a 96-well non-coated plate. Plates were placed in an incubator to allow the hepatocytes to warm for 10 minutes. • 4. The reaction was started by transferring 2 μL of the 100 μM test compound or positive control solution into respective wells of the 96-well non-coated plates. Plates were returned to the incubator until 25 μL aliquots of well contents were sampled at time points of 0, 15, 30, 60, 90 and 120 minutes. The aliquots were then mixed with 6 volumes (150 μL) of acetonitrile containing internal standard, IS (100 nM alprazolam, 200 nM caffeine and 100 nM tolbutamide) to terminate the reaction and vortexed for 5 minutes. After centrifuging the samples for 45 minutes at 3,220 g, aliquots of 100 μL of the supernatant were taken and diluted with 100 μL of ultra-pure water. The mixture was used for LC/MS/MS analysis. All incubations were performed in duplicate.
All calculations were carried out using Microsoft Excel. Peak area ratios (PAR) were determined from extracted ion chromatograms. The in vitro half-life (t1/2) of parent compound was determined by regression analysis of the percent parent disappearance vs. time curve as follows:
Conversion of the in vitro t1/2 (in minutes) into the in vitro intrinsic clearance (in vitro CLint, in μL/min/1×10^6 cells) was done using the following equation (mean of duplicate determinations): […]
The scaled-up intrinsic clearance (CLint, mL/min/kg), predicted hepatic clearance (CLH, mL/min/kg) and hepatic extraction ratio (ER) were calculated using the following equations:
CLint=(0.693/t1/2)*(1/(hepatocyte concentration (0.5*10^6 cells/mL)))*scaling factors (Table (A) Appendix Table 1)
CLHept-predict=(QH*Scaled-up CLint*fub)/(QH+Scaled-up CLint*fub)
ER=CLH/QH • Where: • V=incubation volume (0.2 mL) • N=number of hepatocytes per well (0.1*10^6 cells) • QH=hepatic blood flow (mL/min/kg) (Table (A) Appendix Table 1) • fub=fraction of unbound drug in plasma, assumed to be 1

[1] = molecular target: T1, wt human LRRK2, catalytic site (Homo sapiens, UniProt Q5S007); experiment: TR-FRET LanthaScreen Tb Kinase Activity Assay, LRRK2 inhibition; format: biochemical; details: 2 nM wt human LRRK2, 400 nM peptide, 38 μM ATP
T1 construct: wt human LRRK2, catalytic site, catalytic site (ThermoFisher/USA); purchased ThermoFisher
T1 sequence (Q5S007 1879-2138 limits assumed): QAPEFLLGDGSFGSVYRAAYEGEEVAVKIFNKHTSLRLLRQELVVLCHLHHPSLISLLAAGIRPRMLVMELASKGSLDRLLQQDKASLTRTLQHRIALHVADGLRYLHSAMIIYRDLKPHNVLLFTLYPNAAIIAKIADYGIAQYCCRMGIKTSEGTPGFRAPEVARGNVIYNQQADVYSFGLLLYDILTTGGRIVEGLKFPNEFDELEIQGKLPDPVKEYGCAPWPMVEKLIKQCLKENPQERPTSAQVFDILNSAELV
Method: The compounds disclosed herein were tested for their inhibitory effect on LRRK2 kinase according to the following procedures.
The protocol for basic TR-FRET LanthaScreen Tb Kinase Activity Assay inhibitor studies were as follows. LanthaScreen Kinase Activity Assays (ThermoFisher/USA) to evaluate inhibitors were performed by addition of 100 nL of test compound in corresponding DMSO dilutions/5 μL of kinase/fluorescein-ERM (LRRKtide) peptide mixture, Compound & kinase were pre-incubated for 15 minutes, then 5 μl of ATP into 384 well small volume plates. After incubation for 120 minutes at room temperature, the detection reagents containing Tb-anti-pLRRKtide antibody were added to monitor phosphorylation level of peptide. Then, after 60 min minutes incubation at room temperature plates were read in Envision. Data analysis of emission ratios was according to LanthaScreen Tb Kinase Activity Assay protocol.
Kinase and assay components were adjusted to final concentrations according to the kit protocol. For LRRK2: 2 nM wt human LRRK2, catalytic site, catalytic site (ThermoFisher/USA), 400 nM peptide, 38 μM ATP in 1× Kinase Buffer A. […]
Kinase and assay components were adjusted to final concentrations according to the kit protocol.

Caco-2 cells = experiment: Caco-2 bidirectional permeability; format: in vitro ADME; details: for Caco-2 ER: Efflux Ratio=Papp(BA)/Papp(AB); for Caco-2 A2B (10^−6 cm/s): apical to basolateral; for Caco-2 A2B (10^−6 cm/s) / Caco-2 B2A (10^−6 cm/s): 2 hours, pH 7.4; for Caco-2 B2A (10^−6 cm/s): basolateral to apical
Method: The compounds disclosed herein were tested in vitro on CaCo2 cell penetration according to the following procedures.
Caco-2 cells purchased from ATCC were seeded onto […] (PET) in 96-well Corning Insert plates at 1×10^5 cells/cm^2. The media were refreshed every 4 to 5 days until the 21st to 28th day for confluent cell monolayer formation.
Experiments were run in duplicate using a HBSS transport buffer containing 10 mM HEPES at pH 7.4. The test article TEST COMPOUND was tested bi-directionally at […] concentrations, the control compound digoxin was tested bi-directionally at 10 μM, and nadolol and metoprolol were tested at 2.0 μM in the A to B direction. Final DMSO concentrations were adjusted to less than 1%. The plates were incubated for 2 hours in a CO2 incubator at 37±1° C. with 5% CO2 at saturated humidity without shaking. Following incubation, samples were mixed with acetonitrile containing internal standard and centrifuged at 3200×g for 10 minutes. Then 200 μL of supernatant was taken from all samples. For TEST COMPOUND and digoxin, the supernatant was diluted with 200 μL of ultra-pure water and for nadolol and metoprolol, the supernatant was diluted with 600 μL of ultra-pure water. All samples were analyzed by LC-MS/MS. Concentrations of TEST COMPOUND and control compounds were determined in starting solutions, donor well solutions, and receiver well solutions using peak area ratios (PAR) of analyte to internal standard. After the transport assay, a lucifer yellow rejection assay was run to determine the Caco-2 cell monolayer integrity.
The apparent permeability (Papp), the % recovery and the efflux ratio were calculated as follows:
Papp=(dCr/dt)×Vr/(A×C0) 1.
Efflux Ratio=Papp(BA)/Papp(AB) 3. • Where: • dCr/dt is the slope of the cumulative concentration in the receiver compartment versus time (mM/s). • Vr and Vd is the volume in the receiver and donor compartments (0.075 mL on the apical side, 0.25 mL on the basolateral side), respectively. • A is the surface area of the cell monolayer (0.0804 cm^2). • C0 is the measured donor concentrations (μM) at the beginning of the experiment. • Cd and Cr are the final measured concentrations in the donor and receiver compartments, respectively.

Compound	hHep Cl (mL/min/kg) (human hepatocyte)	IC50 [1] [nM]	Caco-2 ER (Caco-2 cells)	Caco-2 A2B (10^−6 cm/s) (Caco-2 cells)	Caco-2 B2A (10^−6 cm/s) (Caco-2 cells)
Cc1n[nH]c2c1N=C(c1c(F)cccc1F)Nc1cnc(N3CCO[C@@]4(CCOC4)C3)cc1-2 (single isomer, unassigned) [Example 3]	L (L (Low Cl)”: Hep Cl (mL/min/kg)<6.3)	< 1	L (L (Likely)”: ER≥2.5)	M (M (Moderate permeability)”: 1≤A2B (B2A)≤5)	H (H (High permeability)”: A2B (B2A)>5)
Cc1n[nH]c2c1N=C(c1c(F)cccc1F)Nc1cnc(N3CCO[C@]4(CCOC4)C3)cc1-2 (single isomer, unassigned) [Example 4]	L (L (Low Cl)”: Hep Cl (mL/min/kg)<6.3)	< 1	L (L (Likely)”: ER≥2.5)	M (M (Moderate permeability)”: 1≤A2B (B2A)≤5)	H (H (High permeability)”: A2B (B2A)>5)
Cc1n[nH]c2c1N=C(c1c(F)cccc1F)Nc1cnc(N3CCC[C@](C)(C#N)C3)cc1-2 (single isomer, unassigned) [Example 13]	I (I (Intermediate Cl)”: 6.3≤Hep Cl (mL/min/kg)≤14.7)	< 1	L (L (Likely)”: ER≥2.5)	M (M (Moderate permeability)”: 1≤A2B (B2A)≤5)	H (H (High permeability)”: A2B (B2A)>5)
Cc1n[nH]c2c1N=C(c1c(F)cccc1F)Nc1cnc(N3CCN(CCF)CC3)cc1-2 [Example 1, 8-(2,6-difluorophenyl)-13-[4-(2-fluoroethyl)piperazin-1-y1]-5-methyl-3,4,7,9,12-pentazatricyclo[8.4.0.02,6]tetradeca-1(10),2(6),4,7,11,13-hexaene]	I (I (Intermediate Cl)”: 6.3≤Hep Cl (mL/min/kg)≤14.7)	< 1	L (L (Likely)”: ER≥2.5)	M (M (Moderate permeability)”: 1≤A2B (B2A)≤5)	H (H (High permeability)”: A2B (B2A)>5)
Cc1n[nH]c2c1N=C(c1c(F)cccc1F)Nc1cnc(N3CCOC4(COC4)C3)cc1-2 [Example 5, 8-[8-(2,6-difluorophenyl)-5-methyl-3,4,7,9,12-pentazatricyclo[8.4.0.02,6]tetradeca-1(10),2(6),4,7,11,13-hexaen-13-y1]-2,5-dioxa-8-azaspiro[3.5]nonane]	L (L (Low Cl)”: Hep Cl (mL/min/kg)<6.3)	< 1	L (L (Likely)”: ER≥2.5)	L (L (Low permeability)”: A2B (B2A)<1)	H (H (High permeability)”: A2B (B2A)>5)
Cc1n[nH]c2c1N=C(c1c(F)cccc1F)Nc1cnc(N3CCNC4(COC4)C3)cc1-2 [Example 7, 8-[8-(2,6-difluorophenyl)-5-methyl-3,4,7,9,12-pentazatricyclo[8.4.0.02,6]tetradeca-1(10),2(6),4,7,11,13-hexaen-13-y1]-2-oxa-5,8-diazaspiro[3.5]nonane]	L (L (Low Cl)”: Hep Cl (mL/min/kg)<6.3)	< 1	L (L (Likely)”: ER≥2.5)	L (L (Low permeability)”: A2B (B2A)<1)	H (H (High permeability)”: A2B (B2A)>5)
Cc1n[nH]c2c1N=C(c1c(F)cccc1F)Nc1cnc(N3CCN(C)CC3)cc1-2 [Example 8, 8-(2,6-difluorophenyl)-5-methyl-13-(4-methylpiperazin-1-y1)-3,4,7,9,12-pentazatricyclo[8.4.0.02,6]tetradeca-1(10),2(6),4,7,11,13-hexaene]	L (L (Low Cl)”: Hep Cl (mL/min/kg)<6.3)	< 1	L (L (Likely)”: ER≥2.5)	M (M (Moderate permeability)”: 1≤A2B (B2A)≤5)	H (H (High permeability)”: A2B (B2A)>5)
Cc1n[nH]c2c1N=C(c1c(F)cccc1F)Nc1cnc(N3CCCOCC3)cc1-2 [Example 9, 4-[8-(2,6-difluorophenyl)-5-methyl-3,4,7,9,12-pentazatricyclo[8.4.0.02,6]tetradeca-1(10),2(6),4,7,11,13-hexaen-13-y1]-1,4-oxazepane]	L (L (Low Cl)”: Hep Cl (mL/min/kg)<6.3)	1 to 100	L (L (Likely)”: ER≥2.5)	M (M (Moderate permeability)”: 1≤A2B (B2A)≤5)	H (H (High permeability)”: A2B (B2A)>5)
Cc1n[nH]c2c1N=C(c1c(F)cccc1F)Nc1cnc(N3CCNCC3)cc1-2 [Example 10, 8-(2,6-difluorophenyl)-5-methyl-13-piperazin-1-yl-3,4,7,9,12-pentazatricyclo[8.4.0.02,6]tetradeca-1(10),2(6),4,7,11,13-hexaene]	L (L (Low Cl)”: Hep Cl (mL/min/kg)<6.3)	1 to 100	L (L (Likely)”: ER≥2.5)	L (L (Low permeability)”: A2B (B2A)<1)	H (H (High permeability)”: A2B (B2A)>5)
